Tests used:
[1] = biological target: T1, P2Y2 receptor (Homo sapiens, UniProt P41231); experiment: Fura-2 intracellular calcium, FlexStation, native AD-MSCs; format: cell-based; details: agonist; peak calcium response; […] °C, pH […] extracellular Ca2+; receptor assigned by antagonist
T1 construct: gene P2RY2; native endogenous receptor in primary human adipose-derived mesenchymal stromal cells (female donors)
Source text: Fura-2 intracellular calcium, FlexStation, native AD-MSCs on P2Y2 receptor

[2] = biological target: T2, P2Y6 receptor (Homo sapiens, UniProt Q15077); details: antagonist against […] ADP; peak magnitude; cells do not respond to UDP up to […]; […] °C, pH […]
T2 construct: gene P2RY6
T2 sequence (Q15077 whole entry): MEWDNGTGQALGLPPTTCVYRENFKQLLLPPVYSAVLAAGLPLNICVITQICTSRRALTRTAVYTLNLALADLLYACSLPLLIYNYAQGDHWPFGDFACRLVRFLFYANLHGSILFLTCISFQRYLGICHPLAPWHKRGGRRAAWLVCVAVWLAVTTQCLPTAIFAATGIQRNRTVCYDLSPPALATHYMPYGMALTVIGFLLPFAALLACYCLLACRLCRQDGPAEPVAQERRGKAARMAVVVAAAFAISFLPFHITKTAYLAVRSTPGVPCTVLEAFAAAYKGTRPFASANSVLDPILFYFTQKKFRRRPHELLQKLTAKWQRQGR

T1 sequence (P41231 whole entry): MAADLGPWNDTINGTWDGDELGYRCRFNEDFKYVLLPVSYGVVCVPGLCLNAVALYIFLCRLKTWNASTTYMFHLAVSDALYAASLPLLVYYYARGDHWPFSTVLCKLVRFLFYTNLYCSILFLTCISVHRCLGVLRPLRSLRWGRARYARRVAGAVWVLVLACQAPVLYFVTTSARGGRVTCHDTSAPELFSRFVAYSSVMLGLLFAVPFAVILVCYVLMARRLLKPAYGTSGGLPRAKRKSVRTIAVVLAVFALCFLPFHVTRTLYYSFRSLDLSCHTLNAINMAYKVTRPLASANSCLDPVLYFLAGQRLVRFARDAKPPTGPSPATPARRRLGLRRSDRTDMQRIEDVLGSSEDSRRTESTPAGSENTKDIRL

SMILES	EC50 [1] [nM]	IC50 [2] [nM]
Nc1ncnc2c1ncn2[C@@H]1O[C@H](COP(=O)(O)OP(=O)(O)OP(=O)(O)O)[C@@H](O)[C@H]1O [ATP]	2240 ± 1100	
S=C=Nc1cccc(NC(=S)NCCCCNC(=S)Nc2cccc(N=C=S)c2)c1 [MRS2578]		437 ± 133
O=c1ccn([C@@H]2O[C@H](COP(=O)(O)OP(=O)(O)OP(=O)(O)O)[C@@H](O)[C@H]2O)c(=O)[nH]1 [UTP]	3240 ± 2800	

— paper PMC6298923, “P2Y2 and P2Y6 receptor activation elicits intracellular calcium responses in human adipose-derived mesenchymal stromal cells” (Purinergic Signalling, 2018)
